# Data taken from ChEMBL document CHEMBL1909046, “DrugMatrix in vitro pharmacology data”.
# How the values were obtained:
# [1] = DRUGMATRIX: Calcium Channel Type L, Dihydropyridine radioligand binding (ligand: [3H] Nitrendipine); assay type: cell membranes, Rattus norvegicus, Wistar, Cerebral cortex, Membrane; conditions: Not Active = under 50% inhibition at 10 µM
# [2] = molecular target: T1, C-X-C chemokine receptor type 1 (Homo sapiens, UniProt P25024); also: in other assays of this panel Not Active means under 50% inhibition at 10 µM
# T1 sequence (P25024 whole entry): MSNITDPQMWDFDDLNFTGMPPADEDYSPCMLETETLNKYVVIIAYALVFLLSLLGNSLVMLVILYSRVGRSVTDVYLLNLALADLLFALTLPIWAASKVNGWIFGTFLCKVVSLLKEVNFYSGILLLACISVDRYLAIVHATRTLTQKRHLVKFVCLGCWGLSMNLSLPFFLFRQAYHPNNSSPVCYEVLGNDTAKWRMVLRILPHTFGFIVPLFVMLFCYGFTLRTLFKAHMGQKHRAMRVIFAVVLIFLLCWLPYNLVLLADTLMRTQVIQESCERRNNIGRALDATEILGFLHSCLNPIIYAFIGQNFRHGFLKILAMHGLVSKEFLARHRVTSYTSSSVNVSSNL
# [3] = DRUGMATRIX: Phosphodiesterase PDE3 enzyme inhibition (substrate: [3H]cAMP + cAMP); assay type: tissue-based, Homo sapiens; conditions: platelet; Not Active = under 50% inhibition at 10 µM
# [4] = molecular target: T2, Adenosine receptor A1 (Homo sapiens, UniProt P30542); assay type: cell membranes, CHO, Membrane; conditions: cho;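 also: radioligand binding assay at the adenosine A1 receptor, with DPCPX serving as the labelled ligand; in other assays of this panel Not Active means under 50% inhibition at 10 µM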
# T2 sequence (P30542 whole entry): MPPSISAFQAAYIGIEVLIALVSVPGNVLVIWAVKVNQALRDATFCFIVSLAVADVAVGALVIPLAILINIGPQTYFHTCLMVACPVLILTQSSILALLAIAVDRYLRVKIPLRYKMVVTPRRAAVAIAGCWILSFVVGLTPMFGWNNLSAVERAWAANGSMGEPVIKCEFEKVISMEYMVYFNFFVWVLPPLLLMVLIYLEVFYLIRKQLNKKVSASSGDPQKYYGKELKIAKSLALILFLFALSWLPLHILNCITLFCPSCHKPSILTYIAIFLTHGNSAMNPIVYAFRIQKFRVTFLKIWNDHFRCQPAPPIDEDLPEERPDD
# [5] = molecular target: T3, Progesterone receptor (Bos taurus, UniProt Q690N0); assay: DRUGMATRIX: Progesterone radioligand binding (ligand: [3H] R-5020); assay type: tissue-based, Uterus; conditions: Not Active = under 50% inhibition at 10 µM
# T3 sequence (Q690N0 whole entry): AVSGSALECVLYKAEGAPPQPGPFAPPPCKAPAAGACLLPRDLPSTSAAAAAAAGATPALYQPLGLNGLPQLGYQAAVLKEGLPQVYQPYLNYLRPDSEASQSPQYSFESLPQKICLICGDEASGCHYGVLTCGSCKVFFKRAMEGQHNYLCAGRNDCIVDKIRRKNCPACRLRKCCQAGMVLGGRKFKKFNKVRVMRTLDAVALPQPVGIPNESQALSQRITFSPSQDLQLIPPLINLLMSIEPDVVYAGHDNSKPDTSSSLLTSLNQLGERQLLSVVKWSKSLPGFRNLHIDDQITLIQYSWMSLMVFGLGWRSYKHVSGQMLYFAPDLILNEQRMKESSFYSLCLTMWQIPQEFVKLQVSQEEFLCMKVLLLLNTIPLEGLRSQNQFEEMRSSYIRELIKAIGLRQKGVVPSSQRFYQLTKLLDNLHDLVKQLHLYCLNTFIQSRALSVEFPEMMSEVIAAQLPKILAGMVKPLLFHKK
# [6] = molecular target: T4, Glucocorticoid receptor (Homo sapiens, UniProt P04150); conditions: hela s3; also: in other assays of this panel Not Active means under 50% inhibition at 10 µM
# T4 sequence (P04150 whole entry): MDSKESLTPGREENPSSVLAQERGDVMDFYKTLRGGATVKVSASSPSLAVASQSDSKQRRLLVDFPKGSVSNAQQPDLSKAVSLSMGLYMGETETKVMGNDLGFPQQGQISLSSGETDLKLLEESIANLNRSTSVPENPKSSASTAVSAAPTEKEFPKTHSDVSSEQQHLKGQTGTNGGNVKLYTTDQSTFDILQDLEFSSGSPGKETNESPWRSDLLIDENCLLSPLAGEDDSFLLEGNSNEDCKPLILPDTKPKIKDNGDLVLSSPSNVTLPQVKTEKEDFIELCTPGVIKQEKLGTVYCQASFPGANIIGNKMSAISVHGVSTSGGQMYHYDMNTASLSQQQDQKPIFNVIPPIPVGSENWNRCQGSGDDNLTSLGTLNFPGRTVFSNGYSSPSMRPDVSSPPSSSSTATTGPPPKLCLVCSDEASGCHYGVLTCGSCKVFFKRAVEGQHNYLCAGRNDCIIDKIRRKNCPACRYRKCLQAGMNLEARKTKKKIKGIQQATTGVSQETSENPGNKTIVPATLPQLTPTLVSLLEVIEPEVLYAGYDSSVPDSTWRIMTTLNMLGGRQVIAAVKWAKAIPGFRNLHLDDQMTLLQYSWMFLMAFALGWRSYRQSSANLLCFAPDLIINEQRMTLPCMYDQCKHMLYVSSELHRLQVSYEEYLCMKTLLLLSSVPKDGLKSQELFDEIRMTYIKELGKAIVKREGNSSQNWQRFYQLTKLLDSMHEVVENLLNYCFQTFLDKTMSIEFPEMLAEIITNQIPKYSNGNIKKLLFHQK
SMILES,IC50 [1],Ki [1],IC50 [2],IC50 [3],Ki [3],IC50 [4],IC50 [5],IC50 [6],IC50 ([5]; read-out: IC50) [nM],Ki ([5]; read-out: Ki) [nM]
Oc1ccccc1 [PHENOL],Not Active,Not Active,Not Active,Not Active,Not Active,Not Active,,,,
Oc1ncnc2[nH]ncc12 [ALLOPURINOL],Not Active,Not Active,Not Active,Not Active,Not Active,Not Active,Not Active,Not Active,,
COC(=O)Nc1nc2ccc(Sc3ccccc3)cc2[nH]1 [FENBENDAZOLE],Not Active,Not Active,Not Active,Not Active,Not Active,Not Active,Not Active,Not Active,,
C[C@@H]1[C@H](O)[C@@H](C)/C=C/C=C/C=C/C=C/C=C/C=C/C=C/[C@H](O[C@@H]2O[C@H](C)[C@@H](O)[C@H](N)[C@@H]2O)C[C@@H]2O[C@](O)(C[C@@H](O)C[C@@H](O)[C@H](O)CC[C@@H](O)C[C@@H](O)CC(=O)O[C@H]1C)C[C@H](O)[C@H]2C(=O)O [AMPHOTERICIN B],Not Active,Not Active,Not Active,Not Active,Not Active,Not Active,Not Active,Not Active,,
CNC[C@H](O)c1ccc(O)c(O)c1 [EPINEPHRINE],Not Active,Not Active,Not Active,Not Active,Not Active,Not Active,Not Active,,,
O=C(NCCN1CCOCC1)c1ccc(Cl)cc1 [MOCLOBEMIDE],Not Active,Not Active,Not Active,Not Active,Not Active,Not Active,Not Active,,,
CCC1(c2ccccc2)C(=O)NC(=O)NC1=O [PHENOBARBITAL],Not Active,Not Active,Not Active,Not Active,Not Active,Not Active,Not Active,,,
COc1cc(NC(C)CCCN)c2ncccc2c1 (stereo unspecified) [PRIMAQUINE],Not Active,Not Active,Not Active,Not Active,Not Active,Not Active,Not Active,,,
O=C(O)COC(=O)Cc1ccccc1Nc1c(Cl)cccc1Cl [ACECLOFENAC],Not Active,Not Active,Not Active,Not Active,Not Active,Not Active,Not Active,,,
C#C[C@]1(O)CC[C@H]2[C@@H]3CCC4=CC(=O)CC[C@@H]4[C@H]3CC[C@@]21C [NORETHINDRONE],Not Active,Not Active,Not Active,Not Active,Not Active,Not Active,,,9.34,1.22
O=C(O)CO [GLYCOLIC ACID],Not Active,Not Active,Not Active,Not Active,Not Active,Not Active,Not Active,,,
CC(C)(c1ccc(O)cc1)c1ccc(O)cc1 [BISPHENOL A],Not Active,Not Active,Not Active,Not Active,Not Active,Not Active,Not Active,,,
COc1ccc(Cl)cc1C(=O)NCCc1ccc(S(=O)(=O)NC(=O)NC2CCCCC2)cc1 [GLYBURIDE],Not Active,Not Active,Not Active,Not Active,Not Active,Not Active,Not Active,,,
CC(CN1c2ccccc2Sc2ccccc21)N(C)C (stereo unspecified) [PROMETHAZINE],Not Active,Not Active,Not Active,Not Active,Not Active,Not Active,Not Active,,,
CCN1CCN(C(=O)N[C@@H](C(=O)N[C@@H]2C(=O)N3[C@@H]2SC(C)(C)[C@@H]3C(=O)O)c2ccccc2)C(=O)C1=O [PIPERACILLIN],Not Active,Not Active,Not Active,Not Active,Not Active,Not Active,Not Active,,,
O=C(O)c1ccccc1 [BENZOIC ACID],Not Active,Not Active,Not Active,Not Active,Not Active,Not Active,Not Active,,,
CC[C@H]1OC(=O)[C@H](C)[C@@H](O[C@H]2C[C@@](C)(OC)[C@@H](O)[C@H](C)O2)[C@H](C)[C@@H](O[C@@H]2O[C@H](C)C[C@H](N(C)C)[C@H]2O)[C@](C)(O)C[C@@H](C)C(=O)[C@H](C)[C@@H](O)[C@]1(C)O [ERYTHROMYCIN],Not Active,Not Active,Not Active,Not Active,Not Active,Not Active,Not Active,,,
c1ccc2c(c1)Nc1ccccc1S2 [PHENOTHIAZINE],Not Active,Not Active,Not Active,Not Active,Not Active,Not Active,Not Active,,,
Cl.NC[C@H]1CC[C@H](C(=O)Oc2ccc(CCC(=O)O)cc2)CC1 [CETRAXATE HYDROCHLORIDE],Not Active,Not Active,Not Active,Not Active,Not Active,Not Active,Not Active,,,
C[N+](C)(C)CCOC(N)=O.[Cl-] [CARBACHOL],Not Active,Not Active,Not Active,Not Active,Not Active,Not Active,Not Active,,,
NS(=O)(=O)c1cc(C(=O)O)c(NCc2ccco2)cc1Cl [FUROSEMIDE],Not Active,Not Active,Not Active,Not Active,Not Active,Not Active,Not Active,,,
CCN1C[C@]2(COC)[C@H](O)C[C@H](OC)[C@@]34[C@@H]5C[C@@]6(O)[C@H](OC(=O)c7ccccc7)[C@@H]5[C@@](OC(C)=O)([C@@H]([C@H](OC)[C@H]23)[C@@H]14)[C@@H](O)[C@@H]6OC [ACONITINE],Not Active,Not Active,Not Active,Not Active,Not Active,Not Active,Not Active,,,
C[C@H]1C[C@H]2[C@@H]3CCC4=CC(=O)C=C[C@]4(C)[C@@]3(F)[C@@H](O)C[C@]2(C)[C@@]1(O)C(=O)CO [BETAMETHASONE],Not Active,Not Active,Not Active,Not Active,Not Active,Not Active,Not Active,,,
CC(C)NCC(O)COc1ccc(CC(N)=O)cc1 (stereo unspecified) [ATENOLOL],Not Active,Not Active,Not Active,Not Active,Not Active,Not Active,Not Active,,,
